ChEMBL document CHEMBL1150920, “Three new ellagic acid derivatives from the bark of Eschweilera coriacea from the Suriname rainforest” (1998)

Test system: Saccharomyces cerevisiae
Assay: DNA damaging activity against Sc-7 yeast assessed as drug level required to produce 12 mm zone of inhibition
Type: functional

**Q.** With `C[C@@H]1O[C@@H](Oc2cc3c(=O)oc4c(O)c(O)cc5c(=O)oc(c2O)c3c45)[C@H](O)[C@H](O)[C@H]1O` [ESCHWEILENOL C] as the compound, how does the IC12 read?
**A.** Its IC12 is 2000 µg/mL.

**Q.** For `O=c1oc2c(O)c(Oc3ccc(O)c(O)c3O)cc3c(=O)oc4c(O)c(O)cc1c4c23` [ESCHWEILENOL A], which IC12 is on record?
**A.** Its IC12 is 1000 µg/mL.
